Laboratory results: US5001154A, “Fervescence composition” (K.K. Ueno Seiyaku Oyo Kenkyujo, priority 1987, dated 1991)

How the values were obtained:
[1] = in vivo; cited from earlier work
[2] = sedation activity and rising of body temperature in dog; format: in vivo, hybrid adult dog; conditions: intravenous
Excerpt: Sedation Activity A 19-methyl type compound having strong fervescence activity was compared with PGE2 […] sedation activity. A hybrid adult dog was held on a holder for dog and intravenously administered with a test drug dissolved in Ringer's solutions at the forefoot. Sedation activity was judged as follows: Sedation Degree 1: Disappearance of body movement 2: Closing of the eyes 3: Leaning on the holding belt

[3] = fervescence activity by intracerebroventricular injection (rising of body temperature); format: in vivo, Wister male rats; conditions: 400 ng in 3 μl into lateral ventricle, urethane-anesthetized rats, rectal temperature
Protocol: fervescence activity by intracerebroventricular injection
Wister male rats (8 weeks old) were used as test animals.
Rats were applied to anesthesia by intraperitoneal injection with 1.25 g/kg of urethane and a stainless guide cannula was inserted into the lateral ventricle for administration of a test drug according to Pellegrino's Rat brain atras.
Each test drug was dissolved into an artificial cerebrospinal fluid and 400 ng as drug in 3 μl was injected through the injection cannula for 15 seconds. The artificial cerebrospinal fluid alone was injected as control. Body temperature was measured continuously at the rectum. Rising of body temperature is shown by the rising degree (°C.) from the temperature before administration.

[4] = fervescence activity by intravenous injection (rising of body temperature), 1 mg/kg; format: in vivo, Wister male rats; conditions: 1 mg/kg intravenous, urethane-anesthetized rats
Protocol: fervescence activity by intravenous injection Test animals were Wister male rats (8 weeks old) weighing 200±10 g. The rats were applied to anesthesia by intraperitoneal injection of 1.25 g/kg of urethane. Each test drug was dissolved into ethyl alcohol. The ethyl alcohol solution was diluted with Ringer's solution at least 50 times just before use and 1 mg/kg of the each test drug was intravenously administered. Body temperature was measured in the same manner as in Example 1. Ringer's solution containing ethyl alcohol was administered as control. Rising of body temperature is shown by the rising degree (°C.) from the temperature before administration.

acute toxicity (LD50) = conditions: mouse, in vivo; mice, intravenous injection
Excerpt: Acute toxicity (LD50) of the test drugs was estimated on Slc-ddY female mice (5-weeks old) by an intravenous injection.

[5] = fervescence (recovery of body temperature) activity at hemorrhage load; format: in vivo, Wister male rats; conditions: rat loaded with hemorrhage
Protocol: fervescence (recovery of body temperature) activity at hemorrhage load
Wister male rats (weight: 200 g) were subcutaneously injected on the back with 1.5 g/kg of urethane, subjected to anesthesia. Hemorrhage was then induced by withdrawal of blood by puncture of the heart for the total volume of 3 ml equivalent to 1.5% of the body weight. After kept in a room for 60 minutes, the rats were administered intravenously with test solutions prepared by dissolving test drugs into Ringer's solution so as to administer the rat at a dose of 0.5 or 1 mg/kg, and change of the body temperature was observed. Ringer's solution was administered as control.
In the figures, (1), (2) and (3) correspond to the results of administration of doses 1 mg/kg, 0.5 mg/kg and Ringer's solution alone, respectively.

[6] = fervescence activity by intravenous injection (rising of body temperature), 5 mg/kg; format: in vivo, Wister male rats; conditions: 5 mg/kg intravenous, urethane-anesthetized rats
Protocol: Test animals were Wister male rats (8 weeks old) weighing 200±10 g. The rats were applied to anesthesia by intraperitoneal injection of 1.25 g/kg of urethane. Each test drug was dissolved into ethyl alcohol. The ethyl alcohol solution was diluted with Ringer's solution at least 50 times just before use and 1 mg/kg of the each test drug was intravenously administered. Body temperature was measured in the same manner as in Example 1.
Ringer's solution containing ethyl alcohol was administered as control. Rising of body temperature is shown by the rising degree (°C.) from the temperature before administration.
Experiment was carried out in the same manner as in Example 2 except for that test drugs were administered intravenously with a dose of 5 mg/kg.

| SMILES | Rising of Body Temperature [3] | Rising of Body Temperature [4] | also measured |
| --- | --- | --- | --- |
| CCCCC[C@H](O)/C=C/[C@H]1[C@H](O)CC(=O)[C@@H]1C/C=C\CCCC(=O)O [Test drug 58, PGE2] | – | – | blood pressure (known) [1]: strongly decreases the blood pressure; fervescence activity (known) [1]: known to have fervescence activity |
| CCCCC[C@H](O)/C=C/[C@H]1[C@H](O)CC(=O)[C@@H]1C/C=C\CCCC(=O)OC [Test drug 59, PGE2 methyl ester, reference compound] | – | – | sedation activity (in words) [2]: clear sedation activity |
| CCCCCC(=O)CC[C@H]1[C@H](O)CC(=O)[C@@H]1CCCCCCC(=O)O [compound 1] | +0.4 °C | 0 °C | – |
| CCCCCC(=O)CC[C@H]1[C@H](O)CC(=O)[C@@H]1CCCCCCC(=O)OCC [compound 2] | +0.4 °C | +0.9 °C | LD50 (acute toxicity (LD50)): > 1000 mg/kg |
| CCCCCC(=O)CC[C@H]1[C@H](O)CC(=O)[C@@H]1CC(=O)CCCCC(=O)O [compound 6] | +0.8 °C | 0 °C | – |
| CCCCCC(=O)CC[C@H]1[C@H](O)CC(=O)[C@@H]1CC(=O)CCCCC(=O)OC [compound 7] | +0.6 °C | +0.8 °C | – |
| CCCCCC(=O)CC[C@H]1[C@H](O)CC(=O)[C@@H]1CC(=O)CCCCC(=O)OCC [compound 8] | +0.4 °C | +0.6 °C | Rising of Body Temperature ([5]; 0.5 mg/kg intravenous): +0.7 °C; Rising of Body Temperature ([5]; 1 mg/kg intravenous): +0.8 °C |
| COC(=O)CCCCC(=O)C[C@H]1C(=O)C[C@@H](O)[C@@H]1CCC(=O)CCCC(C)C [compound 15] | – | +0.7 °C | Rising of Body Temperature ([2]; 0.5 mg/kg): 1.2 °C |
| CCOC(=O)CCCCC(=O)C[C@H]1C(=O)C[C@@H](O)[C@@H]1CCC(=O)CCCC(C)C [compound 16] | – | +0.8 °C | Rising of Body Temperature ([5]; 0.5 mg/kg intravenous): +0.4 °C; Rising of Body Temperature ([5]; 1 mg/kg intravenous): +0.6 °C; Rising of Body Temperature ([2]; 0.5 mg/kg): 1.1 °C; LD50 (acute toxicity (LD50)): > 300 mg/kg |
| CCCCCCC(=O)CC[C@H]1[C@H](O)CC(=O)[C@@H]1CC(=O)CCCCC(=O)OCC [compound 18] | – | +0.7 °C | Rising of Body Temperature ([5]; 0.5 mg/kg intravenous): +0.4 °C; Rising of Body Temperature ([5]; 1 mg/kg intravenous): +0.8 °C |
| CCCCCC(=O)CC[C@H]1[C@H](C)CC(=O)[C@@H]1CC(=O)CCCCC(=O)OCC [compound 20] | – | +1.3 °C | Rising of Body Temperature ([5]; 0.5 mg/kg intravenous): +0.5 °C; Rising of Body Temperature ([5]; 1 mg/kg intravenous): +0.8 °C |
| CCCCCC(=O)CC[C@H]1[C@H](O)CC(=O)[C@@H]1C/C=C\CCCC(=O)O [compound 22] | +0.7 °C | 0 °C | – |
| CCCCCC(=O)CC[C@H]1[C@H](O)CC(=O)[C@@H]1C/C=C\CCCC(=O)OC [compound 23] | +0.4 °C | +1.0 °C | LD50 (acute toxicity (LD50)): > 1000 mg/kg |
| CCCCCC(=O)CC[C@H]1[C@H](O)CC(=O)[C@@H]1C/C=C\CCCC(=O)OCC [compound 24] | +0.5 °C | +0.5 °C | Rising of Body Temperature ([5]; 0.5 mg/kg intravenous): +0.8 °C; Rising of Body Temperature ([5]; 1 mg/kg intravenous): +1.1 °C; LD50 (acute toxicity (LD50)): 1000 mg/kg |
| CCCCCC(=O)CC[C@H]1[C@H](O)CC(=O)[C@@H]1C/C=C\CCCC(=O)OCCC [compound 25] | – | +0.2 °C | Rising of Body Temperature [6]: +1.3 °C |
| CCCCCC(=O)CC[C@H]1[C@H](O)CC(=O)[C@@H]1C/C=C\CCCC(=O)OCCCC [compound 26] | +0.1 °C | +0.2 °C | Rising of Body Temperature [6]: +0.9 °C |
| COC(=O)CCC/C=C\C[C@H]1C(=O)C[C@@H](O)[C@@H]1CCC(=O)CCCC(C)C [compound 45] | – | +2.0 °C | Rising of Body Temperature ([2]; 0.5 mg/kg): 0.5 °C |
| CCCCC[C@H](O)/C=C/[C@H]1[C@H](O)CC(=O)[C@@H]1C/C=C\CCCC(=O)OC [compound 59] | – | +1.2 °C | Rising of Body Temperature ([2]; 0.01 mg/kg): 0.4 °C |
| CCOC(=O)CCCCC(=O)C[C@H]1C(=O)C[C@@H](O)[C@@H]1/C=C/C(=O)CCCC(C)C [compound 62] | – | – | Rising of Body Temperature [6]: +0.63 °C |
